# Target: Amyloid-beta precursor protein (Homo sapiens, UniProt P05067)
# Assay: Displacement of […] from Abeta peptide plaques in Alzheimer's disease patient brain
# Amyloid-beta precursor protein, sequence (P05067 whole entry): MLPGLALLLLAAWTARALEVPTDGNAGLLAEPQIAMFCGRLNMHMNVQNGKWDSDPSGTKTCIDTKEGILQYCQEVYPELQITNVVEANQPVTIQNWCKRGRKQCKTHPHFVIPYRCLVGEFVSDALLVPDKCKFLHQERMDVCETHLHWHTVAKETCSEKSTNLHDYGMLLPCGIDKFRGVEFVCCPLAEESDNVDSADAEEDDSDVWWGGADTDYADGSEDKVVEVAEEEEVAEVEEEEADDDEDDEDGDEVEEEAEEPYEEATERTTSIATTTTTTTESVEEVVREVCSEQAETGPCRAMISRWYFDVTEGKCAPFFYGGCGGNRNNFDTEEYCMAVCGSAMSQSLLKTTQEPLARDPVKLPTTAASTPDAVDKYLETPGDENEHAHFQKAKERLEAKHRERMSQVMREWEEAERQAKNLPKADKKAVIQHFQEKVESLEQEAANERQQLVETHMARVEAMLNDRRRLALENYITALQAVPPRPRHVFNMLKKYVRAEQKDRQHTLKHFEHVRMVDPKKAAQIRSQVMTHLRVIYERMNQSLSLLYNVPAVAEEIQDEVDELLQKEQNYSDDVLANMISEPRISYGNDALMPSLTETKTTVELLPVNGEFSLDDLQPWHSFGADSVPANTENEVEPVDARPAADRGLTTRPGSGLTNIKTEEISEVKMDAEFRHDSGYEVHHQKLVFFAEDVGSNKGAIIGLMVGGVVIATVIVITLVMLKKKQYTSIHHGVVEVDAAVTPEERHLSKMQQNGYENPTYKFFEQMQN
row,Ki,Compound
1,7.5 nM,CN(C)c1ccc(/C=C/c2cnc(OCCOCCOCCF)c(I)c2)cc1
2,15.5 nM,OCCOc1ncc(/C=C/c2ccc(O)cc2)cc1I
3,5 nM,CNc1ccc(/C=C/c2cnc(OCCO)c(Br)c2)cc1
4,7.5 nM,CN(C)c1ccc(/C=C/c2cnc(OCCO)c(I)c2)cc1

# — ChEMBL document CHEMBL1147144, “Novel styrylpyridines as probes for SPECT imaging of amyloid plaques” (J Med Chem, 2007)
